Measured values as given in US12390437B2, “Itaconic acid derivatives and uses thereof intreating an inflammatory disease or a disease associated with an undesirable immune response” (Sitryx Therapeutics Limited, priority 2019, dated 2025).

The molecules below were run on IL-1β cytokine output from THP-1s (assay: THP-1 AlphaLISA IL-1β cytokine assay). Settings: Homo sapiens, THP-1, PMA-differentiated THP-1 cells, LPS 24 hr then Nigericin 1 hour; read-out: IL-1β (IC50).
Format: cell-based, human
Procedure: Measuring Inhibitory Effects on IL-1β and IL-6 Cytokine Output from THP-1s
The cytokine inhibition profiles of compounds of formula (IW-1) were determined in a differentiated THP-1 cell assay. All assays were performed in RPMI-1640 growth medium (Gibco), supplemented with 10% fetal bovine serum (FBS; Gibco), 1% penicillin-streptomycin and 1% sodium pyruvate unless specified otherwise. The IL-1β and IL-6 cytokine inhibition assays were each run in a background of differentiated THP-1 cells as described below. All reagents described were from Sigma-Aldrich unless specified otherwise. Compounds were prepared as 10 mM DMSO stocks.
THP-1 cells were expanded as a suspension up to 80% confluence in appropriate growth medium. Cells were harvested, suspended, and treated with an appropriate concentration of phorbol 12-myristate 13-acetate (PMA) over a 72 hr period (37° C./5% CO2).
Following 72 hrs of THP-1 cell incubation, cellular medium was removed and replaced with fresh growth media containing 1% of FBS. Working concentrations of compounds were prepared separately in 10% FBS treated growth medium and pre-incubated with the cells for 30 minutes (37° C./5% CO2). Following the 30 minute compound pre-incubation, THP-1s were treated with an appropriate concentration of LPS and the THP-1s were subsequently incubated for a 24 hr period (37° C./5% CO2). An appropriate final concentration of Nigericin was then dispensed into the THP-1 plates and incubated for 1 hour (37° C./5% CO2) before THP-1 supernatants were harvested and collected in separate polypropylene 96-well holding plates.
Reagents from each of the IL-1β and IL-6 commercial kits (Perkin Elmer) were prepared and run according to the manufacturer's instructions. Subsequently, fluorescence signal detection in a microplate reader was measured (EnVision® Multilabel Reader, Perkin Elmer).
Percentage inhibition was calculated per cytokine by normalising the sample data to the high and low controls used within each plate (+/−LPS respectively). Percentage inhibition was then plotted against compound concentration and the 50% inhibitory concentration (IC50) was determined from the resultant concentration-response curve.

SMILES | IC50
C=C(CC(=O)OC(C)c1cc(Cl)cc(Cl)c1)C(=O)OCC(=O)O (single isomer, unassigned; isomer 1) [Example 198, 2-((4-(1-(3,5-dichlorophenyl)ethoxy)-2-methylene-4-oxobutanoyl)oxy)acetic acid (Isomer 1)] | 22 µM
C=C(CC(=O)OC1CCCCCCC1)C(=O)O[C@@H](C)[C@@H](NC(C)=O)C(=O)O (stereo in doubt) [Example 136, (2R,3S)-2-acetamido-3-((4-(cyclooctyloxy)-2-methylene-4-oxobutanoyl)oxy)butanoic acid] | 54.2 µM
C=C(CC(=O)OCCCCCCCC)C(=O)OC1CCOCC1 [Example 26, 4-octyl 1-(tetrahydro-2H-pyran-4-yl) 2-methylenesuccinate] | 16.1 µM
C=C(CC(=O)OC1CCCCC1)C(=O)OC1CN(C(C)=O)C1 [Example 74, 1-(1-acetylazetidin-3-yl) 4-cyclohexyl 2-methylenesuccinate] | 4.2 µM
C=C(CC(=O)OCCCCCC)C(=O)OC1CCN(S(C)(=O)=O)CC1 [Example 76, 4-hexyl 1-(1-(methylsulfonyl)piperidin-4-yl) 2-methylenesuccinate] | 4.1 µM
C=C(CC(=O)OCCCCCC)C(=O)OCCN1CCCC1=O [Example 77, 4-hexyl 1-(2-(2-oxopyrrolidin-1-yl)ethyl) 2-methylenesuccinate] | 14.5 µM
C=C(CC(=O)OC1CCCCCCC1)C(=O)OCC(=O)N(C)CC(=O)O [Example 103, N-(2-((4-(cyclooctyloxy)-2-methylene-4-oxobutanoyl)oxy)acetyl)-N-methylglycine] | 55.5 µM
C=C(CC(=O)OC1CCCCCCC1)C(=O)OCC(=O)N1CCC[C@H]1C(=O)O [Example 104, (2-((4-(cyclooctyloxy)-2-methylene-4-oxobutanoyl)oxy)acetyl)-L-proline] | 14.4 µM
C=C(CC(=O)O[C@@H](C)CCCCCC)C(=O)OCC(=O)N(C)CC(=O)O [Example 105, (S)-N-methyl-N-(2-((2-methylene-4-(octan-2-yloxy)-4-oxobutanoyl)oxy)acetyl)glycine] | 27.9 µM
C=C(CC(=O)O[C@@H](C)CCCCCC)C(=O)OCC(=O)NCC(=O)O [Example 106, (S)-(2-((2-methylene-4-(octan-2-yloxy)-4-oxobutanoyl)oxy)acetyl)glycine] | 15.6 µM
C=C(CC(=O)OC1CCCCC1)C(=O)OC(C(=O)O)C(F)(F)F (centres unmarked) [Example 121, 2-((4-(cyclohexyloxy)-2-methylene-4-oxobutanoyl)oxy)-3,3,3-trifluoropropanoic acid] | 54.2 µM
C=C(CC(=O)OC1CCCCC1)C(=O)O[C@@H](C(=O)O)c1ccccc1 [Example 127, (R)-2-((4-(cyclohexyloxy)-2-methylene-4-oxobutanoyl)oxy)-2-phenylacetic acid] | 44.9 µM
C=C(CC(=O)OC1CCCCCCC1)C(=O)OCC(C)(C)S(=O)(=O)c1cccc(Cl)c1 [Example 131, 1-(2-((3-chlorophenyl)sulfonyl)-2-methylpropyl) 4-cyclooctyl 2-methylenesuccinate] | 4.4 µM
C=C(CC(=O)OC1CCCCCCC1)C(=O)OCC(C)(C)S(C)(=O)=O [Example 132, 4-cyclooctyl 1-(2-methyl-2-(methylsulfonyl)propyl) 2-methylenesuccinate] | 4.3 µM
C=C(CC(=O)O[C@H](C)CCCCCC)C(=O)OC(C)Cc1nnn[nH]1 (stereo partly drawn) [Example 140, 1-(1-(1H-tetrazol-5-yl)propan-2-yl) 4-((R)-octan-2-yl) 2-methylenesuccinate] | 7.8 µM
C=C(CC(=O)O[C@@H](C)CCCCCC)C(=O)OC(C)Cc1nnn[nH]1 (stereo partly drawn) [Example 141, 1-(1-(1H-tetrazol-5-yl)propan-2-yl) 4-((S)-octan-2-yl) 2-methylenesuccinate] | 6.5 µM
C=C(CC(=O)OC1CCCCC1)C(=O)OCc1nnn(C)n1 [Example 142, 4-cyclohexyl 1-((2-methyl-2H-tetrazol-5-yl)methyl) 2-methylenesuccinate] | 6.2 µM
C=C(CC(=O)OC1CCCCC1)C(=O)OCc1nnnn1C [Example 143, 4-cyclohexyl 1-((1-methyl-1H-tetrazol-5-yl)methyl) 2-methylenesuccinate] | 2 µM
C=C(CC(=O)OC(CC)CCCCC)C(=O)OCC(=O)O (centres unmarked) [Example 146, 2-(2-methylene-4-(octan-3-yloxy)-4-oxobutanoyloxy)acetic acid] | 8.5 µM
C=C(CC(=O)OC(CCC)CCCC)C(=O)OCC(=O)O (centres unmarked) [Example 147, 2-(2-methylene-4-(octan-4-yloxy)-4-oxobutanoyloxy)acetic acid] | 13.4 µM
C=C(CC(=O)OC(CCC)CCC)C(=O)OCC(=O)O [Example 148, 2-((4-(heptan-4-yloxy)-2-methylene-4-oxobutanoyl)oxy)acetic acid] | 29.6 µM
C=C(CC(=O)OC1C2CC3CC(C2)CC1C3)C(=O)OCC(=O)O (centres unmarked) [Example 149, 2-((4-((adamantan-2-yl)oxy)-2-methylene-4-oxobutanoyl)oxy)acetic acid] | 12.1 µM
C=C(CC(=O)OC(C)C1CCCCC1)C(=O)OCC(=O)O (centres unmarked) [Example 150, 2-((4-(1-cyclohexylethoxy)-2-methylene-4-oxobutanoyl)oxy)acetic acid] | 11.7 µM
C=C(CC(=O)OC(C)C1CCCCCC1)C(=O)OCC(=O)O (centres unmarked) [Example 151, 2-((4-(1-cycloheptylethoxy)-2-methylene-4-oxobutanoyl)oxy)acetic acid] | 10.3 µM
C=C(CC(=O)OC1CC2(CCCC2)C1)C(=O)OCC(=O)O [Example 152, 2-(2-methylene-4-oxo-4-(spiro[3.4]octan-2-yloxy)butanoyloxy)acetic acid] | 10.3 µM
C=C(CC(=O)OC1CC2(CCCCC2)C1)C(=O)OCC(=O)O [Example 153, 2-(2-methylene-4-oxo-4-(spiro[3.5]nonan-2-yloxy)butanoyloxy)acetic acid] | 7 µM
C=C(CC(=O)OC1CCC2(CCC2)CC1)C(=O)OCC(=O)O [Example 154, 2-(2-methylene-4-oxo-4-(spiro[3.5]nonan-7-yloxy)butanoyloxy)acetic acid] | 8.4 µM
C=C(CC(=O)OC1CCCCC1(C)C)C(=O)OCC(=O)O (centres unmarked) [Example 155, 2-((4-((2,2-dimethylcyclohexyl)oxy)-2-methylene-4-oxobutanoyl)oxy)acetic acid] | 16.5 µM

Same assay, conditions: Homo sapiens, THP-1, read-out: IL-1β (IC50)

SMILES | IC50
C=C(CC(=O)OC1CCCCC1)C(=O)OC/C=C/C(=O)O [Example 123, (E)-4-((4-(cyclohexyloxy)-2-methylene-4-oxobutanoyl)oxy)but-2-enoic acid] | 19.5 µM
C=C(CC(=O)OCC(=O)O)C(=O)OCCS(=O)(=O)c1cccc(Cl)c1 [Example 126, 2-((3-((2-((3-chlorophenyl)sulfonyl)ethoxy)carbonyl)but-3-enoyl)oxy)acetic acid] | 0.7 µM

Same assay, conditions: Homo sapiens; PMA-differentiated THP-1 cells, LPS 24 hr then Nigericin 1 hour; read-out: IL-1β (IC50)

SMILES | IC50
C=C(CC(=O)OC1CCCCC1)C(=O)OCCS(=O)(=O)CCC(=O)O [Example 124, 3-((2-((4-(cyclohexyloxy)-2-methylene-4-oxobutanoyl)oxy)ethyl)sulfonyl)propanoic acid] | 52.4 µM

Same assay, conditions: PMA-differentiated THP-1 cells, LPS 24 hr then Nigericin 1 hour; read-out: IL-1β (IC50)

SMILES | IC50
C=C(CC(=O)OC(C)c1cc(Cl)cc(Cl)c1)C(=O)OCC(=O)O (single isomer, unassigned; isomer 2) [Example 199, 2-((4-(1-(3,5-dichlorophenyl)ethoxy)-2-methylene-4-oxobutanoyl)oxy)acetic acid (Isomer 2)] | 18.3 µM
